Laboratory results published in ChEMBL document CHEMBL1201862, “PubChem BioAssay data set” (2004).
Calls of active or inactive are those of the source.

What was measured:
[1] = cytotoxicity toward DRD oncogenic fibroblasts, dose response, cell-based, non-viral oncogenic, luminescence (AID 1934); assay type: functional; details: Homo sapiens
Vero [2] = experiment: cells; assay type: functional, cell-based; details: Chlorocebus sabaeus
Streptococcus = experiment: Group A Streptococcus viability loss, dose response, counter-screen for streptokinase expression inhibitor project, luminescence, BacTiterGlo (AID 1915); assay type: functional, organism-based;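 further: potency for reduction of bacterial viability or growth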
cells [3] = assay type: functional, cell-based
Vero [4] = experiment: cells; assay type: functional; details: Chlorocebus sabaeus
cells [5] = assay type: functional, cell-based; remark: listed apart in the source
[6] = biological target: Serine/threonine-protein phosphatase (Candida dubliniensis (strain CD36 / CBS 7987 / NCPF 3949 / NRRLY-17841) (Yeast), UniProt B9W6M3); experiment: calcineurin pathway inhibitors in yeast reporter, dose response, S. cerevisiae, CDRE-lacZ, luminescence, secondary (AID 2388); assay type: functional, cell-based;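 further: yeast reporter cells carrying a calcineurin-responsive lacZ construct stimulated with calcium chloride; luminescent beta-galactosidase reporter signal in whole cells rather than isolated phosphatase activity; potency for inhibition where a drop in reporter signal means calcineurin blockade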
Chain of Serine/threonine-protein phosphatase (B9W6M3 whole entry): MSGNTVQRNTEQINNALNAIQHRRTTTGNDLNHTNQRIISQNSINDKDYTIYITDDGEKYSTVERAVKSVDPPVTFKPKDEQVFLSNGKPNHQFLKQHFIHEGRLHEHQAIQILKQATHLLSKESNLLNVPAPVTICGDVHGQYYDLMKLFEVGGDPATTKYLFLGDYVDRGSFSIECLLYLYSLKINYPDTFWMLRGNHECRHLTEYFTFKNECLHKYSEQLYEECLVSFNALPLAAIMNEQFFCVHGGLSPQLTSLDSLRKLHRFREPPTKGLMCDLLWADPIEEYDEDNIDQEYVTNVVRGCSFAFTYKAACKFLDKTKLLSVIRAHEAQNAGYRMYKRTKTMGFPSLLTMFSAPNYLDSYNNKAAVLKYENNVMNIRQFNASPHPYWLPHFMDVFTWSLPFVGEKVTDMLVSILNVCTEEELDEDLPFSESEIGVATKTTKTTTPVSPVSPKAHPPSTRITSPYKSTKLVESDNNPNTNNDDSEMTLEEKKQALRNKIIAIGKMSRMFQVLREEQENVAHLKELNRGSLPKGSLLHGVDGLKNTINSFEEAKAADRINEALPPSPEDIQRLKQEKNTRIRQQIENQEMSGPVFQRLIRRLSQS

Cytochrome P450 1A2 = biological target: T1, Cytochrome P450 1A2 (Homo sapiens, UniProt P05177);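 further: PubChem cytochrome P450 panel assay, CYP1A2 panel member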
T1 sequence (P05177 whole entry): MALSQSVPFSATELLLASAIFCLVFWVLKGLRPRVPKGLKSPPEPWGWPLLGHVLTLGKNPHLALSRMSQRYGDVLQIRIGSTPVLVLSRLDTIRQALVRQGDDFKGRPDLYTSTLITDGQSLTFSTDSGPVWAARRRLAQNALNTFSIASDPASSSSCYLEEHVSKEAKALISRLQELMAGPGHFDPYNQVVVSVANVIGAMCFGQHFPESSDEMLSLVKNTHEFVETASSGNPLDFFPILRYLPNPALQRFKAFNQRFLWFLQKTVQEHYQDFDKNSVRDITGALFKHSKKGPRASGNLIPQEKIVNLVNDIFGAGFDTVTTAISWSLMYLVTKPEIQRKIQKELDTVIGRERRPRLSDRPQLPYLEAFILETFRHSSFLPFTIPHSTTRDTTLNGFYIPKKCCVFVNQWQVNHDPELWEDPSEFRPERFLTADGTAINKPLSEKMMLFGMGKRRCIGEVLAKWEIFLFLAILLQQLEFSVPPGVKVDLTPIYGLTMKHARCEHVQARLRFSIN

[7] = Shn3 3'UTR reporter inhibitors, dose response, cell-based, Clone20 osteoblasts, firefly luciferase, cherry-picked (AID 624132); assay type: functional;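 further: firefly luciferase luminescence from reporter carrying the Shn3 3'UTR in osteoblasts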
[8] = NIH-3T3 fibroblast cytotoxicity, dose response, cytotoxicity control, cell-based, fluorescence, Alamar Blue, secondary assay (AID 2327); assay type: functional;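 further: NIH-3T3 mouse fibroblasts cultured with fluconazole at 8 µg/mL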
[9] = control 3'UTR Renilla luciferase suppression, dose response, counter-screen for Shn3 inhibitor project, cell-based, Clone20-Shn3RL, cherry-picked (AID 624133); assay type: functional
Cytochrome P450 2C19 = Cytochrome P450 2C19 (Homo sapiens, UniProt P33261); experiment: Cytochrome panel assay with activity outcomes. Panel member name: p450-cyp2c19 Compounds with AC50 equal or less than 10 uM are considered active; assay type: functional; details: read-out: AC50
Chain of Cytochrome P450 2C19 (P33261 whole entry): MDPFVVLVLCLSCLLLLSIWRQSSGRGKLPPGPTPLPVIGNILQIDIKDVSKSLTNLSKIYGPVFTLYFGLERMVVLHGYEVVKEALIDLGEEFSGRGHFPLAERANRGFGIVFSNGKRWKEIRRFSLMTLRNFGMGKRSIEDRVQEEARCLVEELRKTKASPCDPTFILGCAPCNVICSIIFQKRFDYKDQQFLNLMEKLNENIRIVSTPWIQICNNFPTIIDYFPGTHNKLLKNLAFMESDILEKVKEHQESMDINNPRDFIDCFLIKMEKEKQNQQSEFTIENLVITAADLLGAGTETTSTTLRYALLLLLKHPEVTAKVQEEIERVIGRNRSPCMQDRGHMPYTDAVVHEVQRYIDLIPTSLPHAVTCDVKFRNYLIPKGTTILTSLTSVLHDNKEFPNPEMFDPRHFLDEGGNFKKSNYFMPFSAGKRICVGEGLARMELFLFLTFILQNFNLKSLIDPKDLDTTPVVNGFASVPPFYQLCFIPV

[10] = biological target: ATP-dependent molecular chaperone HSP82 (Candida albicans (strain WO-1) (Yeast), UniProt C4YTQ8); experiment: loss of DOC-induced GRE-beta-galactosidase reporter signal, dose response, Hsp90 inhibitor project, S. cerevisiae, luminescence (AID 2400); assay type: functional, cell-based;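 further: beta-galactosidase luminescence from glucocorticoid response element reporter as proxy for Hsp90 function; inhibitor potency where signal loss means Hsp90 inhibition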
Chain of ATP-dependent molecular chaperone HSP82 (C4YTQ8 whole entry): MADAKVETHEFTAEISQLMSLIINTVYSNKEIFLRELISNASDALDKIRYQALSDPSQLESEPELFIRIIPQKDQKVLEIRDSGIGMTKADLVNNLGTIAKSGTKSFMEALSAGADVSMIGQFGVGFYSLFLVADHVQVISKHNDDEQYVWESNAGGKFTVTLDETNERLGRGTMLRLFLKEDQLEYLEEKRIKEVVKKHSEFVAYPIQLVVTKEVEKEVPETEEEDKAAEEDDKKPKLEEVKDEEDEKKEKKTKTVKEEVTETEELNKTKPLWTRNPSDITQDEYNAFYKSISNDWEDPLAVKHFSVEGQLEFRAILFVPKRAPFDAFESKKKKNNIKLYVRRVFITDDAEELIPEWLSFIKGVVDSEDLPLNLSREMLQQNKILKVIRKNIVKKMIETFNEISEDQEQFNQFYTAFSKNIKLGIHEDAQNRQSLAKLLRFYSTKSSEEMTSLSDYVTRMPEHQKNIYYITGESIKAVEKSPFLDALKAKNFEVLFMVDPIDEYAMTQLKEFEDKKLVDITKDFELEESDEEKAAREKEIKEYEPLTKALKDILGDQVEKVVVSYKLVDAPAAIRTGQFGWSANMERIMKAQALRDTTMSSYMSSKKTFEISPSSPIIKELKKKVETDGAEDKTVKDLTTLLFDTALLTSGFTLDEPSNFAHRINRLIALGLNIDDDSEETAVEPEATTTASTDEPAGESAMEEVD

BJ [11] = experiment: cytotoxicity toward BJ-TERT fibroblasts, dose response, cell-based, RAS-independent, luminescence (AID 1933); assay type: functional; details: Homo sapiens
Cytochrome P450 2D6 = Cytochrome P450 2D6 (Homo sapiens, UniProt P10635);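 further: CYP2D6 member of a cytochrome P450 panel assay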
Chain of Cytochrome P450 2D6 (P10635 whole entry): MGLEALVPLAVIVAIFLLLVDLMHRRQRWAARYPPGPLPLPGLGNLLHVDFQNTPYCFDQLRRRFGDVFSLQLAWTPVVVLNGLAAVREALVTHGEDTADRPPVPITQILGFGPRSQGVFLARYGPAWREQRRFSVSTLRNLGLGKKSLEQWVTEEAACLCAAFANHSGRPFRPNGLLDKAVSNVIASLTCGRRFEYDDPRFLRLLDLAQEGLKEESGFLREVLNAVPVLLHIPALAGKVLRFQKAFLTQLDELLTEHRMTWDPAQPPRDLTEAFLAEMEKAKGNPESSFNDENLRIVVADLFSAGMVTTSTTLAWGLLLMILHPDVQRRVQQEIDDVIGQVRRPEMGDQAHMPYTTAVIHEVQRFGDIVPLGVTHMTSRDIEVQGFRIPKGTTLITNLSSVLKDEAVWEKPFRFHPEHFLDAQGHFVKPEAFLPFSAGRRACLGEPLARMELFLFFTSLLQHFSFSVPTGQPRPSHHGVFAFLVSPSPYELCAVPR

[12] = biological target: Heat shock protein HSP 90-alpha (Homo sapiens, UniProt P07900); assay type: functional, organism-based
INS1 = experiment: beta cell apoptosis inhibitors, cytokine rescue, dose response, luminescence, retest (AID 449756); assay type: functional, cell-based; details: Rattus norvegicus;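 further: cell death triggered by IL-1 beta plus TNF-alpha plus IFN-gamma mixture; protective hits raise ATP signal compared with cytokine alone wells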
BJ [13] = experiment: cells; assay type: functional, cell-based; details: Homo sapiens
[14] = system: Streptococcus sp. 'group A'; experiment: growth inhibition of control SK(-) GAS strain, dose response, counter-screen for streptokinase expression inhibitor project, luminescence, kanamycin, BacTiterGlo, confirmation (AID 1900); assay type: functional, organism-based
BJ [15] = experiment: cytotoxicity toward BJ-TERT-LT-ST fibroblasts, dose response, cell-based, RAS-independent, luminescence (AID 1935); assay type: functional; details: Homo sapiens;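 further: BJ fibroblasts immortalized with TERT plus LT and ST oncogenes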
[16] = C. albicans growth with fluconazole, confirmation, fluorescence, retest (AID 2467); assay type: functional, cell-based
[17] = biological target: T2, Beta-2 adrenergic receptor (Homo sapiens, UniProt P07550); experiment: Dose response for HTS for Beta-2AR agonists via FAP method from Powderset3.; assay type: functional
T2 sequence (P07550 whole entry): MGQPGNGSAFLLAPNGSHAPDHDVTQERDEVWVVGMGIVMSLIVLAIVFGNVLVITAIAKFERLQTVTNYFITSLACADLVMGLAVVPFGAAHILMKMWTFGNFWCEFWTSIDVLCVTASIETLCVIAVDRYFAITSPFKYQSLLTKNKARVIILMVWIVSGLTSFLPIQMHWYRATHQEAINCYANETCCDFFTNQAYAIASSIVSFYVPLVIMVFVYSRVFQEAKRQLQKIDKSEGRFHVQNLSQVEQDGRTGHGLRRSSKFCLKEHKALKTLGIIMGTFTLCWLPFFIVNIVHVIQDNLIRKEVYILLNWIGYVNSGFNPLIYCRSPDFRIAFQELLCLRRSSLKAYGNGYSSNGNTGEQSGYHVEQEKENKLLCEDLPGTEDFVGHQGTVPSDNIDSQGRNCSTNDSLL

[18] = biological target: T2, Beta-2 adrenergic receptor; experiment: beta2AR agonists driving receptor internalization, dose response, cell-based, FAP fluorogen, flow cytometry, cherry pick 1 (AID 588763); assay type: functional
[19] = biological target: T3, Short transient receptor potential channel 4 (Mus musculus, UniProt Q9QUQ5); experiment: TRPC4 inhibitor concentration-response, dose response, cell-based, HEK293 TRPC4/mu-opioid, DAMGO stimulus, Fluo-4 (AID 492994); assay type: functional
T3 sequence (Q9QUQ5 whole entry): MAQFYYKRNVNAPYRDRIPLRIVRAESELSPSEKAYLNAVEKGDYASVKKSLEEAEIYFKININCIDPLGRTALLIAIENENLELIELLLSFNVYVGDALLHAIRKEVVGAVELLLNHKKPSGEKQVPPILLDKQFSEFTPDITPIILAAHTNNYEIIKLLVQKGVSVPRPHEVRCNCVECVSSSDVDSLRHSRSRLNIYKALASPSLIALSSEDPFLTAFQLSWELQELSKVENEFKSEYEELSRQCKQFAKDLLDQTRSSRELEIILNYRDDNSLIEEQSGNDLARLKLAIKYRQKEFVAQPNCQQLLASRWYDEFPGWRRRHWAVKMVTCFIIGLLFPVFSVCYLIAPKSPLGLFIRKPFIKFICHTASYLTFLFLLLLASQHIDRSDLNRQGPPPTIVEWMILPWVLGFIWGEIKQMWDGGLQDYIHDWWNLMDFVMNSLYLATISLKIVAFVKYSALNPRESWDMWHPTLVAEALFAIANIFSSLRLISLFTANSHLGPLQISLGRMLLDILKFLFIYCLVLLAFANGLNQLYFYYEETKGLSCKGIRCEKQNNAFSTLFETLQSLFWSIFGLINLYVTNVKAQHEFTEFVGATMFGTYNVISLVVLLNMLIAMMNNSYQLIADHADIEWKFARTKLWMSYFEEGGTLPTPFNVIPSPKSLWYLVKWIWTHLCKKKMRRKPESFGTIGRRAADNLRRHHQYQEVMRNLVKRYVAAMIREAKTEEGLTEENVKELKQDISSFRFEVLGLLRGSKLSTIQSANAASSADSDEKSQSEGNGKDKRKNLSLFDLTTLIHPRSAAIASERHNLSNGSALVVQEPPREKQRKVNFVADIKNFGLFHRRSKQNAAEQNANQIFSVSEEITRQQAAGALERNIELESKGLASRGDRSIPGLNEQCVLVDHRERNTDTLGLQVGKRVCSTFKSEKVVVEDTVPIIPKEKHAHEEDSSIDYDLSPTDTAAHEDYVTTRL

[20] = biological target: T3, Short transient receptor potential channel 4; experiment: SAR Analysis for the identification of selective inhibitors of the transient receptor potential cation channel C4 (TRPC4): TRPC4 Serotonin Receptor CRC MPD assay. [Related pubchem assays (depositor defined):AID2247, AID2256]; assay type: functional
[21] = biological target: T3, Short transient receptor potential channel 4; experiment: mouse TRPC4 channel inhibitors, dose response, cell-based, HEK293 TRPC4/mu-opioid, Fluo-4 calcium (AID 434942); assay type: functional;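 further: potency of inhibitors blocking the TRPC4 calcium response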
[22] = biological target: T3, Short transient receptor potential channel 4; experiment: TRPC4 inhibition under acetylcholine activation, SAR follow-up, cell-based, acetylcholine stimulus, HEK293 TRPC4, Fluo-4 (AID 492996); assay type: functional
[23] = biological target: T3, Short transient receptor potential channel 4; experiment: SAR Analysis for the identification of selective inhibits of the transient receptor potential cation channel C4 (TRPC4): Automated Electrophysiology. [Related pubchem assays (depositor defined):AID2256]; assay type: functional

Compound: Oc1c(CN2CCN(c3ccccc3)CC2)cc(Br)c2cccnc12
- EC50 [1]: 14 µM (active)
- IC50 (Vero [2]): > 12.5 µM (active)
- EC50 (Streptococcus): 2.95 µM (active)
- EC50 (cells [3]): 62.6 µM (active)
- CC50 (Vero [4]): 3.51 µM (active)
- EC50 (cells [5]): > 350 µM (not active)
- EC50 [6]: > 180 µM (inactive)
- AC50 (Cytochrome P450 1A2): 1.26 µM (inconclusive)
- AC50 [7]: 1.92 µM (active)
- EC50 [8]: > 160 µM (inconclusive)
- AC50 [9]: 1.84 µM (active)
- AC50 (Cytochrome P450 2C19): 3.98 µM (inconclusive)
- EC50 [10]: 21.3 µM (active)
- EC50 (BJ [11]): 5.2 µM (active)
- AC50 (Cytochrome P450 2D6): 3.98 µM (inconclusive)
- AC50 [12]: 4.59 µM (active)
- AC50 (INS1): 2.42 µM (active)
- EC50 (BJ [13]): 12.7 µM (inconclusive)
- EC50 [14]: 1.47 µM (active)
- EC50 (BJ [15]): 8.16 µM (inconclusive)
- EC50 [16]: 0.656 µM (active)

Compound: CC(Oc1ccc(Cl)cc1Cl)c1nc(-c2ccc(NC(=O)c3ccccn3)cc2)no1 (stereo not drawn)
- EC50 [17]: 0.0883 µM (active)
- EC50 [18]: 0.973 µM (active)

Compound: Cc1cc(N2CCCCC2)nc2ccccc12
- IC50 [19]: 0.82 µM (active)
- IC50 [20]: 2.24 µM (active)
- EC50 [21]: 0.0027 µM (active)
- IC50 [22]: 1.23 µM (active)
- IC50 [23]: 2.63 µM (active)
